In publication PMC10649086 (Antimicrobial Agents and Chemotherapy, 2023):
Where two headings read alike, the source gives them in different places.

Columns and labels:
[1] = target: T1, SARS-CoV2 WT M^pro (Severe acute respiratory syndrome coronavirus 2, UniProt P0DTC1); type: biochemical, SARS-CoV-2
T1 construct: codon-optimized cDNA of SARS-CoV-2 M^pro (QIZ13716.1_ORF1a) was cloned into the pET28a vector; host or cells: E. coli

[2] = tested on: SARS-CoV-2; conditions: in vivo; cited from earlier work
[3] = target: T2, SARS-CoV-2 M^pro (Severe acute respiratory syndrome coronavirus 2, UniProt P0DTC1); type: biochemical
T2 construct: composed of about 300 amino acids embedded in the polyproteins as the nsp5 domain; purchased BPS Biosciences

[4] = target: T3, CoV-229E M^pro (Human coronavirus 229E, UniProt P0C6X1); test: biochemical
T3 construct: M^pro proteins from other human CoVs were also cloned, expressed in E. coli and purified by WuXi AppTec; host or cells: E. coli

[5] = target: T4, CoV-OC43 M^pro (Human coronavirus OC43, UniProt P0C6X6); test: biochemical
T4 construct: M^pro proteins from other human CoVs were also cloned, expressed in E. coli and purified by WuXi AppTec; host or cells: E. coli

[6] = target: T5, CoV-HKU1 M^pro (Human coronavirus HKU1, UniProt P0C6X2); test: biochemical
T5 construct: M^pro proteins from other human CoVs were also cloned, expressed in E. coli and purified by WuXi AppTec; host or cells: E. coli

[7] = target: T6, CoV-NL63 M^pro (Human coronavirus NL63, UniProt P0C6X5); test: biochemical
T6 construct: M^pro proteins from other human CoVs were also cloned, expressed in E. coli and purified by WuXi AppTec; host or cells: E. coli

[8] = target: caspase-2 (Homo sapiens, UniProt P42575); type: biochemical
[9] = target: chymotrypsin C (Homo sapiens, UniProt Q99895); type: biochemical
[10] = tested on: elastase; type: biochemical, human
[11] = target: thrombin (Homo sapiens, UniProt P00734); type: biochemical
[12] = target: caspase 3 (Homo sapiens, UniProt P42574); type: biochemical
[13] = target: calpain1 (Homo sapiens, UniProt P07384); type: biochemical
[14] = target: cathepsin D (Homo sapiens, UniProt P07339); type: biochemical
[15] = target: dipeptidyl peptidase IV (Homo sapiens, UniProt P27487); type: biochemical
[16] = target: cathepsin S (Homo sapiens, UniProt P25774); test: biochemical
[17] = target: cathepsin K (Homo sapiens, UniProt P43235); test: biochemical
[18] = target: cathepsin B (Homo sapiens, UniProt P07858); test: biochemical
[19] = target: cathepsin L (Homo sapiens, UniProt P07711); test: biochemical
[20] = tested on: SARS-CoV-2 WA1 NLuc; test: microbe, parasite or virus in culture; type: cell-based
[21] = tested on: SARS-CoV-2 Wuhan replicon (WT); test: microbe, parasite or virus in culture; type: cell-based
[22] = tested on: CoV-229E; test: organism not typed; type: cell-based
[23] = tested on: CoV-OC43; test: organism not typed; type: cell-based
[24] = tested on: SARS-CoV-2 Alpha; test: microbe, parasite or virus in culture; type: cell-based
[25] = tested on: SARS-CoV-2 Epsilon; test: microbe, parasite or virus in culture; type: cell-based
[26] = tested on: SARS-CoV-2 Delta; test: microbe, parasite or virus in culture; type: cell-based
[27] = tested on: SARS-CoV-2 AY.20 Delta; test: microbe, parasite or virus in culture; type: cell-based
[28] = tested on: SARS-CoV-2 Mu; test: microbe, parasite or virus in culture; type: cell-based
[29] = tested on: SARS-CoV-2 BA.1.1 Omicron; test: microbe, parasite or virus in culture; type: cell-based
[30] = tested on: SARS-CoV-2 BA.2 Omicron; test: microbe, parasite or virus in culture; type: cell-based
[31] = tested on: SARS-CoV-2 BA.2.12.1 Omicron; test: microbe, parasite or virus in culture; type: cell-based
[32] = tested on: SARS-CoV-2 BA.4.1 Omicron; test: microbe, parasite or virus in culture; type: cell-based
[33] = tested on: SARS-CoV-2 BA.5.2.1 Omicron; test: microbe, parasite or virus in culture; type: cell-based
[34] = tested on: SARS-CoV-2; conditions: human, in vivo; cited from earlier work
[35] = Severe acute respiratory syndrome coronavirus 2, read-out: EC50 Mean (SD)
[36] = Severe acute respiratory syndrome coronavirus 2, read-out: EC90 Mean (SD)

cathepsin D, sequence (P07339 65-412): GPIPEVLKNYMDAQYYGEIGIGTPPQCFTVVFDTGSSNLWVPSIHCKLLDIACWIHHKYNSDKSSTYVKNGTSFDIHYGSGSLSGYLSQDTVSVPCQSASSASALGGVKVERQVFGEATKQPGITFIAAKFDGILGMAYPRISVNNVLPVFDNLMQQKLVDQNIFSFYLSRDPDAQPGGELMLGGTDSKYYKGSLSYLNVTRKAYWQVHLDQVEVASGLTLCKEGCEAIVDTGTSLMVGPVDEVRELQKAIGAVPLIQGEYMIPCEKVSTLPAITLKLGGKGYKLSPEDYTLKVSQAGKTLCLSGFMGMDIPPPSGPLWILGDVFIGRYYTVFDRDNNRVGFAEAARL
caspase 3, sequence (P42574 29-175): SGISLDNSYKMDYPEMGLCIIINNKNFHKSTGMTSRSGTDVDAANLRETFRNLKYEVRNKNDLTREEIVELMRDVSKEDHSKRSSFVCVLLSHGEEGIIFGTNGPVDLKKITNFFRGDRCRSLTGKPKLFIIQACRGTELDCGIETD
caspase 3, sequence (P42574 176-277): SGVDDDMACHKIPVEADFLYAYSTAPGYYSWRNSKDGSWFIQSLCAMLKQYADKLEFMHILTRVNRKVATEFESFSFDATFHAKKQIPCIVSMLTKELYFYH
cathepsin S, sequence (P25774 115-331): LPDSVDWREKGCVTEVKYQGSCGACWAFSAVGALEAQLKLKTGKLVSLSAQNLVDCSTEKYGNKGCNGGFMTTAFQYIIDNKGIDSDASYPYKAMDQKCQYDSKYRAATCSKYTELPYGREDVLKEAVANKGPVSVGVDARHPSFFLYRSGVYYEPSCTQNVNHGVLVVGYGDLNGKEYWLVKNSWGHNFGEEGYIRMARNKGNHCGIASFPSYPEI
calpain1, sequence (P07384 whole entry): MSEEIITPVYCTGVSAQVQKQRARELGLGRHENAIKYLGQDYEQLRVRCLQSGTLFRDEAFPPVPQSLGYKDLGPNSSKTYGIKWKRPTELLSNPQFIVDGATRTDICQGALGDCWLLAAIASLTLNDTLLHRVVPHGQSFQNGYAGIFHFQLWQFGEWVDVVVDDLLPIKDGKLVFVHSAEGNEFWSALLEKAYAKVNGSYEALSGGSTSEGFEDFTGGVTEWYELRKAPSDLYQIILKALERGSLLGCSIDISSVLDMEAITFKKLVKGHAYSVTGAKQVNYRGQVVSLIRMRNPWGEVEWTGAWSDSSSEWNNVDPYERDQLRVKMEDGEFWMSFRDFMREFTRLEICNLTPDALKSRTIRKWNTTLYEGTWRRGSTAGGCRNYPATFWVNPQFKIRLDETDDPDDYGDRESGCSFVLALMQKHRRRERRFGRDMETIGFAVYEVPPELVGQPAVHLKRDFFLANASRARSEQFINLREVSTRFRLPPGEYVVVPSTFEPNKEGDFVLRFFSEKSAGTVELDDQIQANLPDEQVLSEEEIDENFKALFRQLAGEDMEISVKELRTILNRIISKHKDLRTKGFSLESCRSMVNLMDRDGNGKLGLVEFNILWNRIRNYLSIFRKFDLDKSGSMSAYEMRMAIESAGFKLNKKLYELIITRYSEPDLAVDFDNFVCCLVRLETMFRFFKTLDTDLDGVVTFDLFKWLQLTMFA
calpain1, sequence (P04632 whole entry, further chain): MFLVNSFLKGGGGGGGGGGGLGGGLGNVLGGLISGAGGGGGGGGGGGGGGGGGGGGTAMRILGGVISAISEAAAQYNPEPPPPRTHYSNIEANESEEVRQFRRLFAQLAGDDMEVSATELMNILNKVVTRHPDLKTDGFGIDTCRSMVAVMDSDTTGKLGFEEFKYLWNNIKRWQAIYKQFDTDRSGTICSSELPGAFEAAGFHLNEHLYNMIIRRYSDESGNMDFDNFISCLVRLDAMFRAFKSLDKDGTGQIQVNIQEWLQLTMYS
T3 sequence (P0C6X1 2966-3267 limits assumed): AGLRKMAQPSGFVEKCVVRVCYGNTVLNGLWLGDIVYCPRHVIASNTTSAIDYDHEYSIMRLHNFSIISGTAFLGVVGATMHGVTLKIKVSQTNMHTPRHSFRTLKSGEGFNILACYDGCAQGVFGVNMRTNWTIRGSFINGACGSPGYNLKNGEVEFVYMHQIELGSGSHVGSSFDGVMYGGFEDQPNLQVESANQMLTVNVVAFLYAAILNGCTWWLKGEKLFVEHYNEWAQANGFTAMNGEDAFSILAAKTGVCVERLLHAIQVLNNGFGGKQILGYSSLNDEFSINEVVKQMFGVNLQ
T4 sequence (P0C6X6 3247-3549 limits assumed): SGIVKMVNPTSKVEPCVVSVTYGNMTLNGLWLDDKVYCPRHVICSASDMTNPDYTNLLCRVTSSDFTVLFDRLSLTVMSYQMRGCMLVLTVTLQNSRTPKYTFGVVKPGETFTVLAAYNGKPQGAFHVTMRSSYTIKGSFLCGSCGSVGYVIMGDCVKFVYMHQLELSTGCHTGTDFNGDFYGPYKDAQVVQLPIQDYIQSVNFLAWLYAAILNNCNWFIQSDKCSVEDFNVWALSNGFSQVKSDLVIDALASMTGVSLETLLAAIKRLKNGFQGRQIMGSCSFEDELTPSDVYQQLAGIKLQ
dipeptidyl peptidase IV, sequence (P27487 whole entry): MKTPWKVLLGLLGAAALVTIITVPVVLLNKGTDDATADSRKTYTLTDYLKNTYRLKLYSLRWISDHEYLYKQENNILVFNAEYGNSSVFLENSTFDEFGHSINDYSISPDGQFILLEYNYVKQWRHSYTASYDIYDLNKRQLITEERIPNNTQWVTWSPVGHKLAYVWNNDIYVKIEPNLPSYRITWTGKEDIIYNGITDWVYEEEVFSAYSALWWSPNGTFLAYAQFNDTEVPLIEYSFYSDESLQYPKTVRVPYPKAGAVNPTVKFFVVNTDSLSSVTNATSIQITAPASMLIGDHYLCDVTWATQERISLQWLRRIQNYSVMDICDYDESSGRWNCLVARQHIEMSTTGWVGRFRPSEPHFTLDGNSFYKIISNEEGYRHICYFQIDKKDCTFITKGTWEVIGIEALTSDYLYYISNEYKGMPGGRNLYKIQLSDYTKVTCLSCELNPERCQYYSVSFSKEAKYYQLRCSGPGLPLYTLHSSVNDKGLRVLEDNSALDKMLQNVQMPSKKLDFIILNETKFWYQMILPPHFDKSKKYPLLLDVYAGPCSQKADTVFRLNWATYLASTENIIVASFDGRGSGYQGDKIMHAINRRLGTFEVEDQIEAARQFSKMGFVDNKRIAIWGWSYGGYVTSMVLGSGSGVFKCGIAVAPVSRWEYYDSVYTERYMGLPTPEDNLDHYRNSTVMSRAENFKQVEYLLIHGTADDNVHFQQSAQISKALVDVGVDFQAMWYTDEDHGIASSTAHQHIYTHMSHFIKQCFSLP
cathepsin K, sequence (P43235 115-329): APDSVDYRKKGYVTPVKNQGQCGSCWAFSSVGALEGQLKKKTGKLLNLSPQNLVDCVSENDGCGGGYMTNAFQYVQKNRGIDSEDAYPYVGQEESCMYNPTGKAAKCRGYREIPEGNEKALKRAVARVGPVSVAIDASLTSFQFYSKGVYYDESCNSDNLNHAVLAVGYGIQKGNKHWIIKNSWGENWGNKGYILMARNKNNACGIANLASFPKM
caspase-2, sequence (P42575 170-325): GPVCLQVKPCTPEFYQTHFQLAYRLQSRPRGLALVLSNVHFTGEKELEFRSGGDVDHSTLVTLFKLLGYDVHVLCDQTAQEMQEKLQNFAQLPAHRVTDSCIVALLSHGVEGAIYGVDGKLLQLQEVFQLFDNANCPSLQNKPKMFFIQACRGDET
caspase-2, sequence (P42575 348-452): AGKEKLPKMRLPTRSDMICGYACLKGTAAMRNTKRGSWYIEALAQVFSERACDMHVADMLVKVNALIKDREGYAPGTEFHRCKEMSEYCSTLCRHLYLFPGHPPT
chymotrypsin C, sequence (Q99895 30-268): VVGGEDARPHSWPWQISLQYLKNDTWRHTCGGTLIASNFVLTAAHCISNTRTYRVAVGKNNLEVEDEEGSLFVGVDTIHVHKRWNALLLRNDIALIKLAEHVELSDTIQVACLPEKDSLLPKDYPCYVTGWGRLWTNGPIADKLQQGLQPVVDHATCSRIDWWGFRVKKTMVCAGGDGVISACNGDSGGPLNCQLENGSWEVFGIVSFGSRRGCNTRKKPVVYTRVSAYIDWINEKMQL
T5 sequence (P0C6X2 3335-3637 limits assumed): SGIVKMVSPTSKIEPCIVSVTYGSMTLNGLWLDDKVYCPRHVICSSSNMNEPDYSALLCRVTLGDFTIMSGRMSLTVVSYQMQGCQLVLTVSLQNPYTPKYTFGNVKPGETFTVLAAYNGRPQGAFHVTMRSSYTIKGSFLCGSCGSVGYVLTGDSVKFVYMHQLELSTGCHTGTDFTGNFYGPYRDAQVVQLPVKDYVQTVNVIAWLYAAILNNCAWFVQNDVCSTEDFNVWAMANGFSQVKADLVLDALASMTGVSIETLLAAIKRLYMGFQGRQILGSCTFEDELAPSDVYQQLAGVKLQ
cathepsin L, sequence (P07711 114-333): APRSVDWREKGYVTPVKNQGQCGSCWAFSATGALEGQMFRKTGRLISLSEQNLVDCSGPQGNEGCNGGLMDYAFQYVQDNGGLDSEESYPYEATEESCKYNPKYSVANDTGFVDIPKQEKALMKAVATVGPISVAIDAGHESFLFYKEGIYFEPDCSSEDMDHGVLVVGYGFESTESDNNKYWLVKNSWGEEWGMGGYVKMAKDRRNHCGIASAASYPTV
T6 sequence (P0C6X5 2940-3242 limits assumed): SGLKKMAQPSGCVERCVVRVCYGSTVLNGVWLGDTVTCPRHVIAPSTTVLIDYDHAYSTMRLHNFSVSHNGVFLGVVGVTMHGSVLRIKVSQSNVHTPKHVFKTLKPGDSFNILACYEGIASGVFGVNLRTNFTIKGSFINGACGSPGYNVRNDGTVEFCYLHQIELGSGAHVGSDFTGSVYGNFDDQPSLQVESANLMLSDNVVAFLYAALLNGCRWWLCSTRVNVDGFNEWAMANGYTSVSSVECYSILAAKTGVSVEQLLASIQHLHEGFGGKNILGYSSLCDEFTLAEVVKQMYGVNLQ

With GC376 the IC50 [1] was 20 nM.

For `CC(C)C[C@@H](C(=O)N1C[C@]2(C[C@H]1C#N)C(=O)Nc1ccccc12)N(C)C(=O)c1cc2c(F)cc(F)c(F)c2[nH]1` [EDP-235], the “effect on viral RNA decline or infectious viral load in nasal samples” value [2] is given as “failed to demonstrate the effect on viral RNA decline or infectious viral load in nasal samples”.

Compound `N#C[C@H](C[C@@H]1CCCNC1=O)NC(=O)[C@H](CC1CC1)NC(=O)c1cc2cccc(Cl)c2[nH]1` [pomotrelvir] has an alpha factor [3] of 10.4, an IC50 [4] of 141 nM and an IC50 [5] of 158 nM. The IC50 [6] was 61 nM, the IC50 [7] was 206 nM and the inhibitory activity [8] was “no inhibitory activity was observed”. For the same compound, the inhibitory activity [9] was “no inhibitory activity was observed”, the inhibitory activity [10] was “no inhibitory activity was observed” and the inhibitory activity [11] was “no inhibitory activity was observed”. For the same compound, the inhibitory activity [12] was “no inhibitory activity was observed”, the inhibitory activity [13] was “no inhibitory activity was observed” and the inhibitory activity [14] was “no inhibitory activity was observed”. The inhibitory activity [15] was “no inhibitory activity was observed”, the Ki [16] was 445 nM and the Ki [17] was 289 nM. For the same compound, the Ki [18] was 1270 nM, the Ki [19] was 7400 nM and the EC90 ([20]; Severe acute respiratory syndrome coronavirus 2, A549-ACE2, read-out: Mean EC90 (SD)) was 114 nM. It also gave an EC50 ([20]; read-out: Mean EC50 (SD)) of 23 nM, an EC50 ([21]; Severe acute respiratory syndrome coronavirus 2, Huh-7, read-out: EC50 Mean (SD)) of 31 nM and an EC90 ([21]; Severe acute respiratory syndrome coronavirus 2, Huh-7, read-out: EC90 Mean (SD)) of 170 nM. It also gave an EC50 ([21]; read-out: Mean EC50 (SD)) of 27 nM, an EC90 ([21]; read-out: Mean EC90 (SD)) of 150 nM and an EC90 ([22]; MRC5, read-out: Mean EC90 (SD)) of 410 nM. The EC50 ([22]; read-out: Mean EC50 (SD)) was 180 nM, the EC50 ([23]; Huh-7, read-out: Mean EC50 (SD)) was 380 nM and the EC90 ([23]; Huh-7, read-out: Mean EC90 (SD)) was 490 nM. The EC50 [24, 35] was 95 nM, the EC90 [24, 36] was 144 nM and the EC50 [25, 35] was 195 nM. The EC90 [25, 36] was 777 nM, the EC50 [26, 35] was 251 nM and the EC90 [26, 36] was 425 nM. The EC50 [27, 35] was 374 nM, the EC90 [27, 36] was 672 nM and the EC50 [28, 35] was 73 nM. It also gave an EC90 [28, 36] of 195 nM, an EC50 [29, 35] of 94 nM and an EC90 [29, 36] of 213 nM. For the same compound, the EC90 [30, 36] was 668 nM, the EC50 ([30]; read-out: EC50 Mean (SD)) was 139 nM and the EC50 [31, 35] was 60 nM. It also gave an EC90 [31, 36] of 171 nM, an EC50 [32, 35] of 244 nM and an EC90 [32, 36] of 1120 nM. The EC50 [33, 35] was 256 nM, the EC90 [33, 36] was 1270 nM and the “primary endpoint: proportion of patients below the limit of detection by infectious virus assay on day 3 of treatment” value [34] was “did not meet the primary endpoint”.
